Measured values reported in paper PMC5090206, “Fluselenamyl: A Novel Benzoselenazole Derivative for PET Detection of Amyloid Plaques (Aβ) in Alzheimer’s Disease” (Scientific Reports, 2016).

How the values were obtained:
[1] = Biodistribution studies of [18F]-9 in normal mice; type: in vivo; conditions: for Blood uptake / Bone uptake / Brain uptake / Heart uptake / Kidney uptake / Liver uptake / Lung uptake: tail-vein injection
Description: Uptake in brain and other critical organs was analyzed in terms of percent injected dose per gram of the tissue (%ID/g) SI Table 1. For in vivo imaging of Aβ plaques, the basic pharmacokinetic model in normal brains involves a high initial penetration of the agent, accompanied by facile clearance due to lack of a binding target. […] For comparison, brain uptake ratios of [^18F]-AV-45 (2 min/2 h) and [^18F]-Florbetaben (2 min/4 h) in normal mice are 4.07 (%ID/g (brain): 2 min: 7.33 ± 1.54; 2 h: 1.80 ± 0.07; 7.33/1.80; 4.07)[10] and 5.0 (%ID/g (brain): 2 min: 4.77; 4 h: 0.95; 4.77/0.95; 5.02)[46], respectively. […] For an agent to be able to serve as an Aβ-imaging agent, literature precedents indicate that brain uptake ratio (%ID/g; the earliest time–point; 2–5 min to that of the latest time point; typically for carbon-11; 30–60 min; and F-18, 2 h) of 3.5 or above could be considered as a benchmark for ability of a given agent to cross the blood-brain barrier. Additionally, the brain uptake of a given imaging agent is also a net function of several components, such as cerebral regional blood flow, BBB permeability, plasma radiotracer concentration, and free fractions of the radiotracer in plasma and in the brain. Furthermore, the lipophilicity of a given compound also reflects a critical physicochemical trait for neuroimaging radiotracers due to its direct relationship to membrane permeability, solubility in water, and entropic contribution to binding. Literature precedents indicate that lipophilic drugs readily cross the BBB, although other chemical characteristics, including the number of hydrogen bonds, molecular weight, polar surface area and molecular size are also known to be critical traits for passive transport. […] Conversely, radiotracers that are too lipophilic can also bind plasma proteins, undergo fast metabolism, while also contributing to high nonspecific binding, such as white matter. […] Additionally, the agent [^18F]-9 excreted from other critical organs over 2 h (SI, Table 1); a critical factor likely to result in favorable dosimetry; although slight defluorination as a function of time is also evident from bone accumulation; yet consistent with pharmacokinetic profiles of other FDA approved agents. For assessing directly the ability of radiotracer to traverse the BBB, [^18F]-9 (170 μCi) was injected into a 24 months old APP/PS1 transgenic mouse and its age-matched WT counterpart, and 30 min post tail-vein injection, the brains were removed, frozen, and sectioned for autoradiography (Fig. 7A–E). […] For ROI analysis of the PET signal in brain section autoradiograms of transgenic mouse (Fig. 7A) and its WT counterpart (Fig. 7D), we used measured count densities in cortex and amygdala target regions and compared them with that of hypothalamus as reference region with a low plaque density as determined by Aβ immunostaining (Fig. 7B). The target/reference ratio (mean ± SD) in the transgenic mouse was 1.88 ± 0.22 compared to 0.96 ± 0.12 in the WT control mouse (Fig. 7E). Since brain stem was also devoid of plaques, we also analyzed the above target regions using brain stem as a reference region, and observed target/reference value in the transgenic to be 0.89 ± 0.1 compared to 0.45 ± 0.07 in the WT mouse. […]
The count intensity (expressed as quantitative light unit (QL)/pixel2) was measured for each ROI after background subtraction, and target/reference ratios for Tg and WT brain were used to compare radiotracer uptake. The final figure was assembled in Adobe Photoshop CS3.
All animal procedures were approved by the Washington University Animal Studies Committee (Protocol # 20150147; Expiration 7/31/18). Thus, biodistribution studies were carried out in "accordance" with the approved guidelines. Pharmacokinetics of 18F-9 in brain and other critical tissues of normal male 12 week old BL6 (WT; 28-36 g) mice were determined as previously described 15. Briefly, 18F-9 (740 kBq) was […]

Aβ1–42 fibrils = molecular target: T1, Aβ1–42 fibrils (Homo sapiens, UniProt P05067); assay: Saturation binding of [18F]-9 with Aβ1–42 fibrils
T1 construct: Commercially available amyloid peptide Aβ1-42; purchased
Description: For assessing the ability of [^18F]-9 to bind Aβ plaques; binding assays with either AD homogenates or preformed Aβ1–42 aggregates were performed in 30 mM Tris, pH 7.4 buffer supplemented with 0.1% BSA[39]. Nonspecific binding was determined in the presence of 5 (1 μM) as a competitor.
Scientific Reports Version of August 4, 2016
Binding assays were performed using previously described methods.11 Briefly, a fixed concentration (0.25 µM/well) of Aβ1–42 fibrils was incubated for 1 h at 37 °C with increasing concentrations of [18F]-9 (0.1 nM-15 nM) in 30 mM Tris-HCl pH 7.4, 0.1% BSA in a reaction volume of 150 µl. […] The exact hot:cold ([18F]-9 : 5) ratio was measured in each experiment by counting an aliquot of a sample (2 µl) of the radioligand preparation in a scintillation counter. Binding of [18F]-9 to human brain homogenates was assessed by incubating samples of insoluble fraction (1.25 µg insoluble protein/well) from AD subjects, with increasing concentrations of [18F]-9 (0.1nM-18 nM) for 1 h at 37 °C. Nonspecific binding was determined in parallel experiments in the presence of 5 (1 µM) as a competitor. […] Glass fiber filters containing the bound ligand were mixed with Optiphase Supermix scintillation cocktail (150µl; PerkinElmer) and counted immediately. […]
Bmax values were calculated in pmol/gram wet weight of brain tissue. […]

T1 sequence (P05067 672-713 limits assumed): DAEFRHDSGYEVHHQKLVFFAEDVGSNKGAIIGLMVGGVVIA

**Q.** Which results are given for `CN(C)c1ncc(/C=C\c2nc3cc(OCC[18F])ccc3[se]2)cn1` [[^18F]-9]?
**A.** brain uptake clearance ratio superior to [18F]-AV-45 ([1]; healthy mice, 2 min/120 min): 1.3 fold; brain clearance ratio (%ID/g) 2 min/120 min ([1]; normal mice): 5.33; Blood uptake ([1]; normal mice, 2 min): 4.79 ± 0.33 % ID/g; Bone uptake ([1]; normal mice, 2 min): 1.15 ± 0.15 % ID/g; Brain uptake ([1]; normal mice, 2 min): 8.86 ± 0.32 % ID/g; Heart uptake ([1]; normal mice, 2 min): 8.56± 0.78 % ID/g; Kidney uptake ([1]; normal mice, 2 min): 14.93± 0.85 % ID/g; Liver uptake ([1]; normal mice, 2 min): 35.44 ± 2.52 % ID/g; Lung uptake ([1]; normal mice, 2 min): 10.07± 0.74 % ID/g; Blood uptake ([1]; normal mice, 60 min): 2.27 ± 0.06 % ID/g; Bone uptake ([1]; normal mice, 60 min): 3.88 ± 1.48 % ID/g; Brain uptake ([1]; normal mice, 60 min): 1.80 ± 0.02 % ID/g; Heart uptake ([1]; normal mice, 60 min): 2.15 ± 0.02 % ID/g; Kidney uptake ([1]; normal mice, 60 min): 2.52 ± 0.06 % ID/g; Liver uptake ([1]; normal mice, 60 min): 8.64 ± 0.15 % ID/g; Lung uptake ([1]; normal mice, 60 min): 2.23 ± 0.11 % ID/g; Blood uptake ([1]; normal mice, 120 min): 2.16 ± 0.03 % ID/g; Bone uptake ([1]; normal mice, 120 min): 6.08 ± 0.85 % ID/g; Brain uptake ([1]; normal mice, 120 min): 1.66 ± 0.01 % ID/g; Heart uptake ([1]; normal mice, 120 min): 1.92 ± 0.05 % ID/g; Kidney uptake ([1]; normal mice, 120 min): 2.12 ± 0.09 % ID/g; Liver uptake ([1]; normal mice, 120 min): 8.13 ± 0.12 % ID/g; Lung uptake ([1]; normal mice, 120 min): 1.98 ± 0.05 % ID/g; Bmax (Aβ1–42 fibrils): 1.3 pmol/nmol; Kd (Aβ1–42 fibrils; 30 mM Tris pH 7.4, 0.1% BSA, one-site model): 1.6 nM
